Tests used:
[1] = tested on: ALK-1, -2, -3, -6 and MAPK activity; conditions: Tocris catalog description; cited from earlier work
[2] = target: type I nodal receptor ALK7; conditions: Tocris catalog description; cited from earlier work
[3] = target: type I activin/nodal receptor ALK4; conditions: Tocris catalog description; cited from earlier work
caspase 3/7 activity = experiment: Caspase-Glo assay of apoptosis in organoid-fibroblast co-cultures challenged with TNF and IFNγ; type: cell-based, human; conditions: 10 µM tofacitinib; upon exposure to inflammatory cytokines; Figure 5B; measured in accordance with Example 6
Protocol: (§1) In Examples 4-9, fibroblast cultures, organoid cultures, and co-cultures of the fibroblasts and organoids, were prepared according to Examples 1-2. OSM (1 ng/mL) and IL-1β (1 ng/mL) were added to the co-cultures according to Example 3 where "proinflammatory stimuli" or "proinflammatory stimulation" are specified in Examples 4-9. Co-cultures were then incubated on plates for 72 hours at 37°C and 5% CO2 prior to cytokine or caspase analysis, or for 96 hours at 37°C and 5% CO2 prior to imaging analysis.
72 hours after organoids and fibroblasts were combined in co-culture, apoptosis in co-culture was triggered using inflammatory stimuli (in the form of damage-inducing cytokines), and measured 24 hours later, in co-cultures prepared using proinflammatory stimuli and in co-cultures not prepared using proinflammatory stimuli.
Stock solutions of TNF and IFNγ were diluted 1:1 with 0.6% Tween in PBS, and were added to the co-cultures at concentrations of 15 ng/mL and 15 ng/mL respectively. Plates were then incubated for 24 hours.
Apoptosis was assessed using a Caspase-Glo assay (e.g. Promega) to determine relative caspase 3/7 activity. Briefly, 95 µL of room-temperature caspase reagent was added to each plate. Plates were then shaken for 1 minute before incubation in the dark at room temperature for 30 minutes. […]

[4] = tested on: co-cultures of the fibroblasts and organoids; experiment: Imaging of organoid morphology and area in organoid-fibroblast co-cultures (Calcein AM stain); type: cell-based, human; conditions: 10 µM tofacitinib; Figure 5A; measured in accordance with Example 4
Protocol: as §1
Organoids in co-culture were first stained with Calcein AM. 48 hours after the organoids and fibroblasts were combined in co-culture, 50 µL DMSO was added to a vial of Calcein AM and mixed. 88 µL of the mixture was added to 4,312 µL of Ad-DF+++ media. 10 µL of the final Calcein AM mixture was added to co-cultures before 5-10 seconds of shaking in a Tecan D300. Plates were then incubated for 2 hours at 37°C and 5% CO2. Imaging were then performed to assess organoid morphology.

In the case of Cc1cccc(-c2nn(C(=S)Nc3ccccc3)cc2-c2ccnc3ccccc23)n1 [A83-01], the “inhibition of ALK-1, -2, -3, -6 and MAPK activity” value [1] is listed as “only weakly inhibits”, the IC50 [2] is listed as 7.5 nM and the IC50 [3] is listed as 45 nM.

For C[C@@H]1CCN(C(=O)CC#N)C[C@@H]1N(C)c1ncnc2[nH]ccc12 [tofacitinib], the caspase activity (caspase 3/7 activity) was “greatly diminishes” and the change in morphology [4] was “small change”.

From patent publication EP4495227A1, “CO-CULTURES OF ORGANOIDS AND STROMAL CELLS” (HUB Organoids IP B.V., priority 2023, dated 2025)
